Assay results taken from publication PMC11157767 (Molecular Cancer, 2024).

Tested on: TRIM24-MET-i cells
Conditions: GSEA v. DMSO
Procedure: The number of unique and shared differentially expressed genes between each comparison are shown in parentheses. A linear regression line is depicted along with Pearson’s correlation coefficient (r) and its associated p-value. […] Common negatively enriched genesets between all three comparisons are in bold. c, Heatmaps showing expression of Hallmark_Myc_Target_v1/2 genes for indicated cells and treatment comparisons (TRIM-MET cells were treated in vitro, TFG-MET cells in vivo). Select leading edge genes from GSEA are labeled.

## CNC(=O)c1ccc(-c2cnc3ncc(Cc4ccc5ncccc5c4)n3n2)cc1F [Capmatinib]
  ES GOBP_NCRNA_METABOLIC_PROCESS: -0.6039
  ES GOBP_RIBONUCLEOPROTEIN_COMPLEX_BIOGENESIS: -0.6363
  ES GOBP_RIBOSOME_BIOGENESIS: -0.7035
  ES GOBP_RRNA_METABOLIC_PROCESS: -0.6814
  ES GOCC_90S_PRERIBOSOME: -0.8257
  ES GOCC_NUCLEOLUS: -0.4698
  ES GOCC_PRERIBOSOME: -0.8127
  ES GOCC_RIBONUCLEOPROTEIN_COMPLEX: -0.4981
  ES GOCC_SMALL_SUBUNIT_PROCESSOME: -0.8233
  ES GOMF_CATALYTIC_ACTIVITY_ACTING_ON_RNA: -0.4916
  ES GOMF_HYDROLASE_ACTIVITY_ACTING_ON_ACID_ANHYDRIDES: -0.3694
  ES GOMF_MRNA_BINDING: -0.4686
  ES GOMF_RIBONUCLEOPROTEIN_COMPLEX_BINDING: -0.568
  ES GOMF_SNORNA_BINDING: -0.8035
  ES HALLMARK_ADIPOGENESIS: -0.2484
  ES HALLMARK_ALLOGRAFT_REJECTION: -0.3747
  ES HALLMARK_ANDROGEN_RESPONSE: -0.535
  ES HALLMARK_ANGIOGENESIS: -0.5762
  ES HALLMARK_APICAL_JUNCTION: -0.2832
  ES HALLMARK_APICAL_SURFACE: 0.5506
  ES HALLMARK_APOPTOSIS: -0.4219
  ES HALLMARK_BILE_ACID_METABOLISM: 0.4031
  ES HALLMARK_CHOLESTEROL_HOMEOSTASIS: -0.4011
  ES HALLMARK_COAGULATION: -0.4551
  ES HALLMARK_COMPLEMENT: -0.4981
  ES HALLMARK_DNA_REPAIR: -0.2565
  ES HALLMARK_E2F_TARGETS: -0.3059
  ES HALLMARK_EPITHELIAL_MESENCHYMAL_TRANSITION: -0.2783
  ES HALLMARK_ESTROGEN_RESPONSE_EARLY: -0.385
  ES HALLMARK_ESTROGEN_RESPONSE_LATE: -0.2661
  ES HALLMARK_FATTY_ACID_METABOLISM: 0.234
  ES HALLMARK_G2M_CHECKPOINT: -0.3396
  ES HALLMARK_GLYCOLYSIS: -0.3498
  ES HALLMARK_HEDGEHOG_SIGNALING: -0.4541
  ES HALLMARK_HEME_METABOLISM: 0.2869
  ES HALLMARK_HYPOXIA: -0.3596
  ES HALLMARK_IL2_STAT5_SIGNALING: -0.5259
  ES HALLMARK_IL6_JAK_STAT3_SIGNALING: -0.2773
  ES HALLMARK_INFLAMMATORY_RESPONSE: -0.4368
  ES HALLMARK_INTERFERON_ALPHA_RESPONSE: 0.32
  ES HALLMARK_INTERFERON_GAMMA_RESPONSE: -0.2553
  ES HALLMARK_KRAS_SIGNALING_DN: 0.2731
  ES HALLMARK_KRAS_SIGNALING_UP: -0.491
  ES HALLMARK_MITOTIC_SPINDLE: -0.3333
  ES HALLMARK_MTORC1_SIGNALING: -0.5528
  ES HALLMARK_MYC_TARGETS_V1: -0.6393
  ES HALLMARK_MYC_TARGETS_V2: -0.8185
  ES HALLMARK_MYOGENESIS: -0.217
  ES HALLMARK_NOTCH_SIGNALING: -0.4058
  ES HALLMARK_OXIDATIVE_PHOSPHORYLATION: -0.3105
  ES HALLMARK_P53_PATHWAY: -0.2547
  ES HALLMARK_PANCREAS_BETA_CELLS: 0.3447
  ES HALLMARK_PEROXISOME: 0.2566
  ES HALLMARK_PI3K_AKT_MTOR_SIGNALING: -0.3267
  ES HALLMARK_PROTEIN_SECRETION: -0.3279
  ES HALLMARK_REACTIVE_OXYGEN_SPECIES_PATHWAY: -0.337
  ES HALLMARK_SPERMATOGENESIS: 0.1852
  ES HALLMARK_TGF_BETA_SIGNALING: -0.5788
  ES HALLMARK_TNFA_SIGNALING_VIA_NFKB: -0.6019
  ES HALLMARK_UV_RESPONSE_DN: -0.3389
  ES HALLMARK_UV_RESPONSE_UP: -0.4065
  ES HALLMARK_WNT_BETA_CATENIN_SIGNALING: -0.3938
  ES HALLMARK_XENOBIOTIC_METABOLISM: 0.19
  ES KRIGE_RESPONSE_TO_TOSEDOSTAT_6HR_DN: -0.5928
  ES KRIGE_RESPONSE_TO_TOSEDOSTAT_24HR_DN: -0.6267
  ES LEE_BMP2_TARGETS_DN: -0.6601
  ES PUJANA_CHEK2_PCC_NETWORK: -0.5659
  ES WEI_MYCN_TARGETS_WITH_E_BOX: -0.6789
  NES GOBP_NCRNA_METABOLIC_PROCESS: -2.536
  NES GOBP_NCRNA_PROCESSING: -2.602
  NES GOBP_RIBONUCLEOPROTEIN_COMPLEX_BIOGENESIS: -2.684
  NES GOBP_RIBOSOME_BIOGENESIS: -2.8623
  NES GOBP_RRNA_METABOLIC_PROCESS: -2.7
  NES GOCC_90S_PRERIBOSOME: -2.336
  NES GOCC_NUCLEOLUS: -2.057
  NES GOCC_PRERIBOSOME: -2.789
  NES GOCC_RIBONUCLEOPROTEIN_COMPLEX: -2.151
  NES GOCC_SMALL_SUBUNIT_PROCESSOME: -2.456
  NES GOMF_CATALYTIC_ACTIVITY_ACTING_ON_RNA: -2.047
  NES GOMF_HYDROLASE_ACTIVITY_ACTING_ON_ACID_ANHYDRIDES: -1.614
  NES GOMF_MRNA_BINDING: -1.915
  NES GOMF_RIBONUCLEOPROTEIN_COMPLEX_BINDING: -2.117
  NES GOMF_SNORNA_BINDING: -2.308
